The values that follow come from patent publication US7786107B2, “Modulators of muscarinic receptors” (Vertex Pharmaceuticals Incorporated, priority 2006, dated 2010).

Each structure is given as a SMILES string.

For assay [1], the target named is T1, M1 muscarinic receptor (Homo sapiens, UniProt P11229).
T1 construct: expressed in transfected cells; host or cells: CHO
T1 sequence (P11229 1-460): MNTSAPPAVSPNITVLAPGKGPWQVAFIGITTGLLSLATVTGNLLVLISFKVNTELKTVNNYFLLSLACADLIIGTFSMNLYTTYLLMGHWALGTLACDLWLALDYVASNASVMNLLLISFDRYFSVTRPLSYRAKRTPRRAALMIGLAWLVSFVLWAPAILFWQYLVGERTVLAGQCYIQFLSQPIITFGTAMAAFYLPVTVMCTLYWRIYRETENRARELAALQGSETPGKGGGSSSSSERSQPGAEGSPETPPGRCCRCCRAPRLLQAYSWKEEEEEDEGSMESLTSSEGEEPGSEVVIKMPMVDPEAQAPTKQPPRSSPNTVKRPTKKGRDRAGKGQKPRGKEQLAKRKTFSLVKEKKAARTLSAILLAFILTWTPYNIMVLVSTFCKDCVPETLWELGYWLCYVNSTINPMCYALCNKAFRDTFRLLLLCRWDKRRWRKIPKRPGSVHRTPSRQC
Description: Functional mobilization of intracellular calcium (FLIPR) in CHO cells expressing M1. As to conditions: for EC50: CHO cells expressing M1, calcium mobilization; for Emax: CHO, 100% efficacy is the maximum response obtained with the Carbachol control. In kind it is cell-based. The method, then: (§1) Functional Mobilization of Intracellular Calcium to Determine Muscarinic Receptor Activity:
(§2) CHO cells expressing muscarinic receptors (M1 to M5) are grown as monolayers in tissue culture flasks at 37° C. in a humidified atmosphere containing 5% CO2 and passaged every 3-5 days. The growth media is Dulbecco's modified eagles medium (DMEM, Gibco Cat#12430-054), containing 25 mM Hepes and supplemented with Fetal Bovine Serum (Hyclone, Cat#SH30071.03), 0.1 mM of MEM non-essential amino acids (GIBCO, Cat#11140-050), 1 mM MEM Sodium Pyruvate (GIBCO Cat#11360-070) and 100 units/ml of Penicillin G and 100 μg/ml of Streptomycin (GIBCO Cat#15140-122). The recombinant muscarinic receptor cell lines are grown under antibiotic pressure with media containing 25 μg/ml zeocin and 500 μg/ml G418 (MI-CHO), 4 μg/ml puromycin, 50 μg/ml zeocin and 2.5 μg/ml blasticidin (M2 and M4-CHO) or 50 μg/ml zeocin and 4 μg/ml puromycin (M3 and M5-CHO).
(§3) Cells are harvested at 80-90% confluence using Versene (GIBCO Cat#15040-066), collected by centrifugation and seeded 18-24 hours prior to running the calcium assay at a density of 5,000-10,000 cells/well in […], clear-bottomed 384-well plates (BD Biocoat, poly-D-lysine, Cat#356663). The day of the experiment, the cells are washed with a plate washer (Bioteck Instruments, ELX 405) using bath 1 buffer (140-mM NaCl, 4.5-mM KCl, 2-mM CaCl2, 1-mM MgCl2, 10-mM Hepes-Na, 10-mM Glucose, pH 7.4, with NaOH) containing 1 mM Probenecid. Next, the calcium dye Fluo-3 (25 μl well of Fluo-3 AM at 4 μM, Molecular Probes F-1241, in Bath 1 buffer containing 1 mM Probenecid) is added to the 25 μl of Bath 1 remaining in each well after the plate wash and the dye is loaded at 37° C. in the tissue culture incubator for 60-90 min. The fluorescent dye is removed using the plate washer with Bath 1 containing 1 mM Probenecid, leaving 25 μl/well of this solution after the wash. Alternatively, cells can be loaded with the calcium indicator from Molecular Devices (Calcium 3 Assay Reagents, Cat #R7181) adding 5 μl of a 5× solution dye in Bath 1 containing 1 mM Probenecid (10 ml per dye flask cat#R7182 to generate a solution 20×) to 20 μl of the same buffer. After loading for 60 min, the experiment can be run without having to remove the dye.
(§4) Compounds are prepared at a 2× fold concentration in a 96-well plate (round bottom, Costar Corning cat#3656), by reconstituting the pre-spotted compounds in bath 1 containing 1 mM probenecid. The final concentration DMSO is 0.5%, and the amount of DMSO is normalized across the assay plate. To determine an agonist action of the compounds on muscarinic receptors, the reconstituted compounds are added (25 μl compound/well) to the cell assay plate (containing 25 μl/well) using the multi-channel robotic system of the FLIPR 3 Instrument (Molecular Devices, Sunnyvale, Calif.). To determine a functional inhibitory action of the compounds on muscarinic receptors, the reconstituted compounds are added (25 μl compound/well) to the assay plate and pre-incubated for 15 min prior to adding 25 μl of Carbachol at 3× the EC80 for each muscarinic subtype. Alternatively, the compounds can be co-applied simultaneously with the agonist. In both assay modes, the fluorescence is recorded for 60 sec (excitation wavelength is […] and emission wavelength 540 nm) using the FLIPR 3 instrument.
(§5) The potency, efficacy and selectivity of the muscarinic compounds were evaluated by screening the compound activity across the whole family (M1 to M5 cells). Compounds were also screened for activity on other proteins such as other GPCRs and ion channels to determine selectivity on M4 receptors.
(§6) Examples of activities and efficacies of the muscarinic compounds of formulae (I, I-A, and I-B) on modulating M1 and M4 receptors are shown below in Table 4. […]
(Calcium flux is commonly read through the fluorescence of an indicator in the cells.)

The target of assay [2] is T2, M4 muscarinic receptor (Homo sapiens, UniProt P08173).
T2 construct: expressed in transfected cells; host or cells: CHO
T2 sequence (P08173 1-479): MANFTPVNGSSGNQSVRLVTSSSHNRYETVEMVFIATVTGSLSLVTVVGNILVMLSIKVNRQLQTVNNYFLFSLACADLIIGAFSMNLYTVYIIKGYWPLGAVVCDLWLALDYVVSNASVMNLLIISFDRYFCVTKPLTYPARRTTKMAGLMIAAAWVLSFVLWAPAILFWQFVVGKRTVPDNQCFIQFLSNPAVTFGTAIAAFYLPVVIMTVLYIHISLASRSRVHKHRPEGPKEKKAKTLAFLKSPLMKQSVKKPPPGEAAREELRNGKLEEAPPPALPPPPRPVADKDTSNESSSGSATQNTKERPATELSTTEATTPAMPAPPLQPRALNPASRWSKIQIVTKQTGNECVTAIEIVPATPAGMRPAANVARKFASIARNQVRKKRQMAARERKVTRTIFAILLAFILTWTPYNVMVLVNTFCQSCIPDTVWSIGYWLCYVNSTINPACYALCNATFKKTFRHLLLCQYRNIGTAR
The assay can be described thus: Functional mobilization of intracellular calcium (FLIPR) in CHO cells expressing M4. In kind it is cell-based. As to conditions: for EC50: CHO cells expressing M4, calcium mobilization; for Emax: CHO, 100% efficacy is the maximum response obtained with the Carbachol control. The method, then:
as §1, §2, §3, §4, §5, §6

A word on the EC50: it is the concentration needed to bring the measured effect to its halfway point. A word on the Emax: it is the greatest response seen or fitted, relative to the assay's reference. With `CC(=O)N1CCCC2(CCN(C3C[C@@H]4CC[C@@H]3C4)CC2)c2ccccc21` (some centres unmarked) [Compound 17], in assay [1], the EC50 was > 10 µM and the Emax was < 25%. Moreover, in assay [2], the EC50 is > 10 µM and the Emax was < 25%.

Regarding `CCOC(=O)N1CCC(N2CCC3(CCC(=O)Nc4ccccc43)CC2)CC1` [Compound 18], in assay [1], the half-maximal effective concentration (EC50) is < 2 µM and the Emax lay within 25 to 100%. Also, in assay [2], the EC50 was < 2 µM and the Emax fell in the range of 25 to 100%.

For `CN1C(=O)CCC2(CCN(C3CC4CCC(C4)C3)CC2)c2ccccc21` (centres unmarked) [Compound 19, 1′-(bicyclo[3.2.1.]octan-3-yl)-1-methyl-3,4-dihydrospiro[benzo[b]azepine-5,4′-piperidin]-2(1H)-one], the EC50 in assay [1] and in assay [2] was < 2 µM each time. For the same compound, the Emax in assay [1] and in assay [2] was 25 to 100% each time.

As to `NC(=O)N1CCCC2(CCN(CC3CCCCC3)CC2)c2ccccc21` [Compound 20], in assay [1], the EC50 was > 10 µM and the Emax was < 25%. For the same compound, in assay [2], the EC50 was 2 to 10 µM and the maximum response (Emax) is < 25%.

Turning to `CCOC(=O)N1CCC(N2CCC3(CCC(=O)N(C)c4ccccc43)CC2)CC1` [Compound 21], the EC50 in assay [1] and in assay [2] was 2 to 10 µM in each case. For the same compound, the Emax in assay [1] and in assay [2] was 25 to 100% throughout.

Regarding `CCOC(=O)N1C2CCC1CC(N1CCC3(CCCN(C(N)=O)c4ccccc43)CC1)C2` (centres unmarked) [Compound 22], in assay [1], the EC50 was < 2 µM and the Emax was 25 to 100%. In assay [2], the EC50 was < 2 µM and the Emax lay in the range of 25 to 100%.

For the compound `CCOC(=O)N1CCC(N2CCC3(CCCN(C(=O)N(C)C)c4ccccc43)CC2)CC1` [Compound 23], the results for the EC50 in assay [1] and in assay [2] were 2 to 10 µM and < 2 µM, respectively. For the same compound, the Emax in assay [1] and in assay [2] was 25 to 100% in each case.

`O=C1CCC2(CCN(C3CCCCCC3)CC2)c2ccccc2N1` [Compound 24, 1′-cycloheptyl-3,4-dihydrospiro[benzo[b]azepine-5,4′-piperidin]-2(1H)-one]: in assay [1], the concentration giving a half-maximal response (EC50) is < 2 µM and the Emax lay in the range of 25 to 100%. For the same compound, in assay [2], the EC50 is < 2 µM and the Emax lay in the range of 25 to 100%.

Regarding `CN(C)C(=O)N1CCCC2(CCN(C3CC4CCC(C4)C3)CC2)c2ccccc21` (centres unmarked) [Compound 25], the EC50 in assay [1] was > 10 µM; in assay [2], < 2 µM. Further, the Emax in assay [1] was < 25%; in assay [2], 25 to 100%.

Regarding `NC(=O)N1CCCC2(CCN(C3C[C@@H]4CC[C@@H]3C4)CC2)c2ccccc21` (some centres unmarked) [Compound 26], in assay [1], the EC50 is > 10 µM and the Emax was < 25%. In assay [2], the EC50 was > 10 µM and the Emax is < 25%.

`CN(C)C(=O)N1CCCC2(CCN(CC3CCCCC3)CC2)c2ccccc21` [Compound 27]: the EC50 in assay [1] and in assay [2] was > 10 µM throughout. In addition, the Emax in assay [1] and in assay [2] was < 25% each time.

Turning to `CCOC(=O)N1C2CCC1CC(N1CCC3(CCCN(C(C)=O)c4ccccc43)CC1)C2` (centres unmarked) [Compound 28], the EC50 in assay [1] and in assay [2] was < 2 µM throughout. The Emax in assay [1] and in assay [2] was 25 to 100% in each case.

For `O=C1CCC2(CCN(C3CC4CCC(C4)C3)CC2)c2ccccc2N1` (centres unmarked) [Compound 29], in assay [1], the EC50 is < 2 µM and the Emax was 25 to 100%. In assay [2], the EC50 is < 2 µM and the maximal response (Emax) lay in the range of 25 to 100%.

On to `CCOC(=O)N1C2CCC1CC(N1CCC3(CCC(=O)N(C)c4ccccc43)CC1)C2` (centres unmarked) [Compound 30], for which, in assay [1], the EC50 was < 2 µM and the Emax was in the range of 25 to 100%. For the same compound, in assay [2], the EC50 is < 2 µM and the Emax was in the range of 25 to 100%.

As to `CN(C)C(=O)N1CCCC2(CCN(CCC(C)(C)C)CC2)c2ccccc21` [Compound 31], in assay [1], the EC50 was > 10 µM and the Emax is < 25%. In assay [2], the EC50 was < 2 µM and the Emax lay within 25 to 100%.

As to `CC(=O)N1CCCC2(CCN(CCC(C)(C)C)CC2)c2ccccc21` [Compound 32], in assay [1], the EC50 lay in the range of 2 to 10 µM and the Emax is < 25%. Moreover, in assay [2], the EC50 is < 2 µM and the Emax was 25 to 100%.

`CN(C)C(=O)N1CCCC2(CCN(C3C[C@@H]4CC[C@@H]3C4)CC2)c2ccccc21` (some centres unmarked) [Compound 33]: the EC50 in assay [1] and in assay [2] was > 10 µM throughout. Moreover, the Emax in assay [1] and in assay [2] was < 25% in each case.

As for `CC(=O)N1CCCC2(CCN(CCC(C)C)CC2)c2ccccc21` [Compound 34], the EC50 in assay [1] and in assay [2] was > 10 µM in each case. In addition, the Emax in assay [1] and in assay [2] was < 25% each time.

Consider `CN1C(=O)CCC2(CCN(C3C[C@@H]4CC[C@@H]3C4)CC2)c2ccccc21` (some centres unmarked) [Compound 35], for which the concentration giving a half-maximal response (EC50) in assay [1] is > 10 µM; in assay [2] it was < 2 µM. Besides, the results for the Emax in assay [1] and in assay [2] were < 25% and 25 to 100%, respectively.

Regarding `CC(C)(C)CCN1CCC2(CCC(=O)Nc3ccccc32)CC1` [Compound 36, 1′-(3,3-dimethylbutyl)-3,4-dihydrospiro[benzo[b]azepine-5,4′-piperidin]-2(1H)-one], in assay [1], the half-maximal effective concentration (EC50) was < 2 µM and the Emax is 25 to 100%. In assay [2], the EC50 was < 2 µM and the maximal effect (Emax) was 25 to 100%.
